Source: ChEMBL document CHEMBL4229383, “Antiproliferative efficacy of curcumin mimics through microtubule destabilization” (Eur J Med Chem, 2018)
pIC50: −log10 of the molar value. Activity calls are given as the source filed them. The rule behind the calls is not given here.

Assays:
WRL68 = test: Cytotoxicity against human WRL68 cells preincubated for 4 hrs followed by incubation in compound free media for 24 hrs by MTT assay; assay type: functional, cell-based
MCF7 = test: Cytotoxicity against human MCF7 cells preincubated for 4 hrs followed by incubation in compound free media for 24 hrs by MTT assay; assay type: functional, cell-based
A-431 = test: Cytotoxicity against human A431 cells preincubated for 4 hrs followed by incubation in compound free media for 24 hrs by MTT assay; assay type: functional, cell-based
A549 = test: Cytotoxicity against human A549 cells preincubated for 4 hrs followed by incubation in compound free media for 24 hrs by MTT assay; assay type: functional, cell-based
DLD-1 = test: Cytotoxicity against human DLD1 cells preincubated for 4 hrs followed by incubation in compound free media for 24 hrs by MTT assay; assay type: functional, cell-based
[1] = Inhibition of porcine brain tubulin polymerization measured every min for 1 hr; set-up: species or system Sus scrofa
Sus scrofa = species on record: Sus scrofa; test: Inhibition of porcine brain tubulin polymerization at 20 uM measured every min for 1 hr
Mus musculus [2] = test: Toxicity in Swiss mouse implanted with mouse EAC solid tumor cells assessed as body weight at 22 mg/kg, ip measured on day 5 post dose (reference value: 26.7 g); assay type: organism-based; conditions: in vivo
Mus musculus [3] = test: Toxicity in Swiss mouse implanted with mouse EAC cells assessed as body weight at 20 mg/kg, ip measured on day 12 post dose (reference value: 32.5g); assay type: organism-based; conditions: in vivo
Mus musculus [4] = test: Toxicity in Swiss mouse implanted with mouse EAC cells assessed as body weight at 20 mg/kg, ip measured on day 12 post dose (reference value: 35.5g); assay type: organism-based; conditions: in vivo
Mus musculus [5] = test: Toxicity in Swiss mouse implanted with mouse EAC cells assessed as body weight at 20 mg/kg, ip measured on day 5 post dose (reference value: 26.33g); assay type: organism-based; conditions: in vivo
Mus musculus [6] = test: Toxicity in Swiss mouse implanted with mouse EAC solid tumor cells assessed as body weight at 22 mg/kg, ip from day 1 to 9 and measured on day 13 post dose (reference value: 26.9g); assay type: organism-based; conditions: in vivo
Ehrlich [7] = test: Antitumor activity against mouse EAC cells implanted in Swiss mouse assessed as tumor growth inhibition at 20 mg/kg, ip from day 1 to 9 and measured on day 12 post dose relative to control; assay type: functional; conditions: read-out: TGI
Ehrlich [8] = test: Antitumor activity against mouse EAC cells implanted in Swiss mouse assessed as solid tumor growth inhibition at 22 mg/kg, ip from day 1 to 9 and measured on day 13 post dose relative to control; assay type: functional; conditions: read-out: TGI
Mus musculus [9] = test: Toxicity in Swiss mouse implanted with mouse EAC cells assessed as body weight at 20 mg/kg, ip measured on day 1 post dose (reference value: 22g); assay type: organism-based; conditions: in vivo
Mus musculus [10] = test: Toxicity in Swiss mouse implanted with mouse EAC solid tumor cells assessed as body weight at 22 mg/kg, ip measured on day 1 post dose (reference value: 25 g); assay type: organism-based; conditions: in vivo
Mus musculus [11] = test: Toxicity in Swiss mouse implanted with mouse EAC cells assessed as body weight at 20 mg/kg, ip measured on day 1 post dose (reference value: 24.77g); assay type: organism-based; conditions: in vivo
Mus musculus [12] = test: Toxicity in Swiss mouse implanted with mouse EAC cells assessed as body weight at 20 mg/kg, ip measured on day 9 post dose (reference value: 30.55g); assay type: organism-based; conditions: in vivo
Mus musculus [13] = test: Toxicity in Swiss mouse implanted with mouse EAC cells assessed as mortality at 20 mg/kg, ip from day 1 to 9 and measured on day 12 post dose; assay type: organism-based; conditions: in vivo
Mus musculus [14] = test: Toxicity in Swiss mouse implanted with mouse EAC solid tumor cells assessed as body weight at 22 mg/kg, ip measured on day 9 post dose (reference value: 26.7 g); assay type: organism-based; conditions: in vivo
Mus musculus [15] = test: Toxicity in Swiss mouse implanted with mouse EAC cells assessed as body weight at 20 mg/kg, ip measured on day 5 post dose (reference value: 23.7g); assay type: organism-based; conditions: in vivo
Mus musculus [16] = test: Toxicity in Swiss mouse implanted with mouse EAC cells assessed as body weight at 20 mg/kg, ip measured on day 9 post dose (reference value: 28.66g); assay type: organism-based; conditions: in vivo

| SMILES | pIC50 (WRL68) | pIC50 (MCF7) | pIC50 (A-431) | pIC50 (A549) | pIC50 (DLD-1) | further results |
| --- | --- | --- | --- | --- | --- | --- |
| COc1cc(/C=C/C(=O)CC(=O)/C=C/c2ccc(O)cc2)ccc1O | 4.58 | 4.04 | < 4.00 | 4.55 | < 4.40 |  |
| O=C(/C=C/c1ccc(/C=C/C(=O)c2ccc3c(c2)OCO3)cc1)c1ccc2c(c1)OCO2 | 4.10 | 4.51 | < 4.00 | < 4.00 | < 4.40 |  |
| O=C(/C=C/c1ccc2c(c1)OCO2)c1cccc(C(=O)/C=C/c2ccc3c(c2)OCO3)c1 | < 4.00 | < 4.00 | 5.00 | 4.73 | 4.78 |  |
| O=C(/C=C/c1ccc(O)cc1)CC(=O)/C=C/c1ccc(O)cc1 [BISDEMETHOXYCURCUMIN] | 4.34 | 4.31 | < 4.00 |  | < 4.40 |  |
| COc1cc(/C=C/C(=O)CC(=O)/C=C/c2ccc(O)c(OC)c2)ccc1O [CURCUMIN] | 4.56 | 4.66 | < 4.00 | 4.36 | < 4.40 | pIC50 [1]: 5.29; inhibition (Sus scrofa): Active |
| O=c1[nH]cc(F)c(=O)[nH]1 [FLUOROURACIL] |  |  |  |  |  | Activity (Mus musculus [2]): 25.14 g; Activity (Mus musculus [3]): 21.42 g; Activity (Mus musculus [4]): 24.14 g; Activity (Mus musculus [5]): 25.85 g; Activity (Mus musculus [6]): 24.85 g; inhibition in vivo at 20 mg/kg (Ehrlich [7]): 96.4 to 96.8%; inhibition in vivo at 22 mg/kg (Ehrlich [8]): 51%; Activity (Mus musculus [9]): 22.85 g; Activity (Mus musculus [10]): 26.42 g; Activity (Mus musculus [11]): 25.85 g; Activity (Mus musculus [12]): 24.57 g; Activity (Mus musculus [13]): Non-Toxic; Activity (Mus musculus [14]): 24.71 g; Activity (Mus musculus [15]): 22.57 g; Activity (Mus musculus [16]): 21.71 g |
| COc1cc([C@@H]2c3cc4c(cc3[C@H](O)[C@H]3COC(=O)[C@H]23)OCO4)cc(OC)c1OC [PODOFILOX] | 5.52 | 5.38 | < 4.00 | 5.25 | 6.96 | pIC50 [1]: 6.11 |
| CC/C(=C(\c1ccccc1)c1ccc(OCCN(C)C)cc1)c1ccccc1 [TAMOXIFEN] |  | 5.06 | < 4.00 |  | 4.79 |  |
